System: Pseudomonas aeruginosa PAM1001
Test: microbe, parasite or virus in culture
Type: cell-based
Summary of the method: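 Checkerboard broth microdilution (NCCLS) with the efflux pump inhibitor and levofloxacin, each diluted along one axis of the plate, in Mueller Hinton Broth. Inoculum 5×10^5 CFU/ml from early-log culture; incubation 20 h at 35° C. Growth read at 650 nm and visually.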

[1] = Table 1, EPI Conc. μg/ml (number not given; column between 10 and 40 μg/ml)
[2] = Table 2, EPI Conc. μg/ml (number not given; column between 10 and 40 μg/ml)
[3] = Table 3, EPI Conc. μg/ml (number not given; column between 10 and 40 μg/ml)
[4] = Table 4, EPI Conc. μg/ml (number not given; column between 10 and 40 μg/ml)

Substance	Levofloxacin MIC Against P. aeruginosa PAM1001 in Presence of Efflux Pump Inhibitor (EPI), Minimum Inhibitory Concentration (Table 1, EPI Conc. 0 μg/ml) [µg/mL]	Levofloxacin MIC Against P. aeruginosa PAM1001 in Presence of Efflux Pump Inhibitor (EPI), Minimum Inhibitory Concentration (Table 1, EPI Conc. 0.625 μg/ml) [µg/mL]	Levofloxacin MIC Against P. aeruginosa PAM1001 in Presence of Efflux Pump Inhibitor (EPI), Minimum Inhibitory Concentration (Table 1, EPI Conc. 5 μg/ml) [µg/mL]	Levofloxacin MIC Against P. aeruginosa PAM1001 in Presence of Efflux Pump Inhibitor (EPI), Minimum Inhibitory Concentration (Table 1, EPI Conc. 10 μg/ml) [µg/mL]	Levofloxacin MIC Against P. aeruginosa PAM1001 in Presence of Efflux Pump Inhibitor (EPI), Minimum Inhibitory Concentration (Table 1, EPI Conc. 40 μg/ml) [µg/mL]	Levofloxacin MIC Against P. aeruginosa PAM1001 in Presence of Efflux Pump Inhibitor (EPI), Minimum Inhibitory Concentration [1] [µg/mL]	Levofloxacin MIC Against P. aeruginosa PAM1001 in Presence of Efflux Pump Inhibitor (EPI), Minimum Inhibitory Concentration (Table 2, EPI Conc. 0 μg/ml) [µg/mL]	Levofloxacin MIC Against P. aeruginosa PAM1001 in Presence of Efflux Pump Inhibitor (EPI), Minimum Inhibitory Concentration (Table 2, EPI Conc. 0.625 μg/ml) [µg/mL]	Levofloxacin MIC Against P. aeruginosa PAM1001 in Presence of Efflux Pump Inhibitor (EPI), Minimum Inhibitory Concentration (Table 2, EPI Conc. 5 μg/ml) [µg/mL]	Levofloxacin MIC Against P. aeruginosa PAM1001 in Presence of Efflux Pump Inhibitor (EPI), Minimum Inhibitory Concentration (Table 2, EPI Conc. 10 μg/ml) [µg/mL]	Levofloxacin MIC Against P. aeruginosa PAM1001 in Presence of Efflux Pump Inhibitor (EPI), Minimum Inhibitory Concentration (Table 2, EPI Conc. 40 μg/ml) [µg/mL]	Levofloxacin MIC Against P. aeruginosa PAM1001 in Presence of Efflux Pump Inhibitor (EPI), Minimum Inhibitory Concentration (Table 2, EPI Conc. […]) [µg/mL]	Levofloxacin MIC Against P. aeruginosa PAM1001 in Presence of Efflux Pump Inhibitor (EPI), Minimum Inhibitory Concentration [2] [µg/mL]	Levofloxacin MIC Against P. aeruginosa PAM1001 in Presence of Efflux Pump Inhibitor (EPI), Minimum Inhibitory Concentration (Table 3, EPI Conc. 0 μg/ml) [µg/mL]	Levofloxacin MIC Against P. aeruginosa PAM1001 in Presence of Efflux Pump Inhibitor (EPI), Minimum Inhibitory Concentration (Table 3, EPI Conc. 0.625 μg/ml) [µg/mL]	Levofloxacin MIC Against P. aeruginosa PAM1001 in Presence of Efflux Pump Inhibitor (EPI), Minimum Inhibitory Concentration (Table 3, EPI Conc. 5 μg/ml) [µg/mL]	Levofloxacin MIC Against P. aeruginosa PAM1001 in Presence of Efflux Pump Inhibitor (EPI), Minimum Inhibitory Concentration (Table 3, EPI Conc. 10 μg/ml) [µg/mL]	Levofloxacin MIC Against P. aeruginosa PAM1001 in Presence of Efflux Pump Inhibitor (EPI), Minimum Inhibitory Concentration (Table 3, EPI Conc. 40 μg/ml) [µg/mL]	Levofloxacin MIC Against P. aeruginosa PAM1001 in Presence of Efflux Pump Inhibitor (EPI), Minimum Inhibitory Concentration [3] [µg/mL]	Levofloxacin MIC Against P. aeruginosa PAM1001 in Presence of Efflux Pump Inhibitor (EPI), Minimum Inhibitory Concentration (Table 4, EPI Conc. 0 μg/ml) [µg/mL]	other results
D-Ornithyl-D-β-(3-quinolinyl)alanine 2,3-trimethylenepyridyl-5-amide [Compound 41 (Table 2)]	4	4	0.125	0.06	0.015	0.015	4	4	2	1	0.50	4	0.25	4	4	4	2	0.50	1	4	Levofloxacin MIC Against P. aeruginosa PAM1001 in Presence of Efflux Pump Inhibitor (EPI), Minimum Inhibitory Concentration (Table 1, EPI Conc. […]): 2 µg/mL; Levofloxacin MIC Against P. aeruginosa PAM1001 in Presence of Efflux Pump Inhibitor (EPI), Minimum Inhibitory Concentration (Table 3, EPI Conc. […]): 4 µg/mL; Levofloxacin MIC Against P. aeruginosa PAM1001 in Presence of Efflux Pump Inhibitor (EPI), Minimum Inhibitory Concentration (Table 4, EPI Conc. 0.625 μg/ml): 4 µg/mL; Levofloxacin MIC Against P. aeruginosa PAM1001 in Presence of Efflux Pump Inhibitor (EPI), Minimum Inhibitory Concentration (Table 4, EPI Conc. 5 μg/ml): 2 µg/mL; Levofloxacin MIC Against P. aeruginosa PAM1001 in Presence of Efflux Pump Inhibitor (EPI), Minimum Inhibitory Concentration (Table 4, EPI Conc. 10 μg/ml): 0.50 µg/mL; Levofloxacin MIC Against P. aeruginosa PAM1001 in Presence of Efflux Pump Inhibitor (EPI), Minimum Inhibitory Concentration (Table 4, EPI Conc. […]): 4 µg/mL; Levofloxacin MIC Against P. aeruginosa PAM1001 in Presence of Efflux Pump Inhibitor (EPI), Minimum Inhibitory Concentration [4]: 0.50 µg/mL
Phenylalanyl-Nα -methylornithine 2-(naphthylmethyl)amide [Compound 17 (Table 1)]	4	4	0.25	0.125	0.125	0.06	4	4	4	2	0.03	4	0.50	4	4	4	2	0.25	1	4	Levofloxacin MIC Against P. aeruginosa PAM1001 in Presence of Efflux Pump Inhibitor (EPI), Minimum Inhibitory Concentration (Table 3, EPI Conc. […]): 4 µg/mL; Levofloxacin MIC Against P. aeruginosa PAM1001 in Presence of Efflux Pump Inhibitor (EPI), Minimum Inhibitory Concentration (Table 4, EPI Conc. 0.625 μg/ml): 4 µg/mL; Levofloxacin MIC Against P. aeruginosa PAM1001 in Presence of Efflux Pump Inhibitor (EPI), Minimum Inhibitory Concentration (Table 4, EPI Conc. 5 μg/ml): 0.50 µg/mL; Levofloxacin MIC Against P. aeruginosa PAM1001 in Presence of Efflux Pump Inhibitor (EPI), Minimum Inhibitory Concentration (Table 4, EPI Conc. 10 μg/ml): 0.125 µg/mL; Levofloxacin MIC Against P. aeruginosa PAM1001 in Presence of Efflux Pump Inhibitor (EPI), Minimum Inhibitory Concentration (Table 4, EPI Conc. 40 μg/ml): 0.125 µg/mL; Levofloxacin MIC Against P. aeruginosa PAM1001 in Presence of Efflux Pump Inhibitor (EPI), Minimum Inhibitory Concentration [4]: 0.125 µg/mL
D-Lysyl-β-N-(4-Methylphenethyl)alanine Quinoline-2-amide TFA [Example 22]	4	4	2	1	0.125	0.125	4	4	1	0.25	0.03	4	0.06	4	4	1	0.125	0.06	0.03	4	Levofloxacin MIC Against P. aeruginosa PAM1001 in Presence of Efflux Pump Inhibitor (EPI), Minimum Inhibitory Concentration (Table 1, EPI Conc. […]): 4 µg/mL; Levofloxacin MIC Against P. aeruginosa PAM1001 in Presence of Efflux Pump Inhibitor (EPI), Minimum Inhibitory Concentration (Table 4, EPI Conc. 0.625 μg/ml): 4 µg/mL; Levofloxacin MIC Against P. aeruginosa PAM1001 in Presence of Efflux Pump Inhibitor (EPI), Minimum Inhibitory Concentration (Table 4, EPI Conc. 5 μg/ml): 4 µg/mL; Levofloxacin MIC Against P. aeruginosa PAM1001 in Presence of Efflux Pump Inhibitor (EPI), Minimum Inhibitory Concentration (Table 4, EPI Conc. 10 μg/ml): 2 µg/mL; Levofloxacin MIC Against P. aeruginosa PAM1001 in Presence of Efflux Pump Inhibitor (EPI), Minimum Inhibitory Concentration (Table 4, EPI Conc. 40 μg/ml): 0.50 µg/mL; Levofloxacin MIC Against P. aeruginosa PAM1001 in Presence of Efflux Pump Inhibitor (EPI), Minimum Inhibitory Concentration (Table 4, EPI Conc. […]): 4 µg/mL; Levofloxacin MIC Against P. aeruginosa PAM1001 in Presence of Efflux Pump Inhibitor (EPI), Minimum Inhibitory Concentration [4]: 1 µg/mL
